Test [1] has as its system ATGL. Nature of the test: ATGL protein quantification via immunoblot in HepG2 cell type. It is filed as cell-based, human. The protocol:
HepG2 cell type was cultured in RPMI medium with 10% FBS and 1% Pen/Strep on collagen-coated plates. Lipofectamine RNAiMAX reagent mediated siRNA (100 nM) was delivered to cells at the suspended state for 48 h. Different from HEK cells, it is not necessary to induce LDs via OA treatment in that there exist LDs in the HepG2 cell type at normal culture medium. The inventors treated HepG2 cells with 10 µM PF04620110 (DGAT1 inhibitor, Sigma) & PF-06424439 (DGAT2 inhibitor, Sigma) for 48 hours or with 5 µg/mL BFA (B5936, Sigma) for 6 hours to deplete LDs and intact Golgi in the HepG2 cell type respectively before glucose deprivation. To deprive glucose in the HepG2 cell type, we either added 2-DG at indicated concentrations to the culture medium or refresh cells with RPMI medium containing different glucose concentrations prepared from the same RPMI medium (Gibco, 11879020).
Adipose depots, liver pieces, differentiated iBAs, HepG2, HEK293T and HEK293-AAV cell types were homogenized in RIPA buffer (50 mM Tris-HCl pH 7.4, 150 mM NaCl, 2 mM EDTA, 1.0% Triton X100, 0.5% sodium deoxycholate) with protease inhibitors (Complete, Roche) and phosphatase inhibitors (Halt phosphatase inhibitor cocktail, ThermoFisher). […] The concentration of WCE was determined by DC Protein Assay (Bio-Rad). […]
Background: Immunoblotting shows a protein as a band on a membrane.

The subject of test [2] is wild-type mice. The test can be described thus: Glucose deprivation by 2-DG administration in mice. It is filed as in vivo. The protocol:
All animal experiments were permitted by the Veterinary office of the Canton of Zurich. Both female and male mice were used in the experiments, and they were housed 2-5 littermates per cage in ventilated cages at standard housing conditions (22°C, 12 h reversed light/dark cycle, dark phase starting at 7 am) with normal chow diet (18% proteins, 4.5% fibers, 4.5% fat, 6.3% ashes, Provimi Kliba SA) and water. Health status of all the mouse lines were monitored regularly based on FELASA guidelines. 8-10 weeks old C57BL/6N male mice were fasted for 24 h or injected with 2-DG (2 g/kg BW) to induce glucose deprivation for different durations. Female ROSA26-LSL-spCas9 mice (The Jackson Lab strain) were intravenously injected with AAV8-U6-Pi4kb gRNAs-TBG-Cre, AAV8-U6-Sacm1l gRNAs-TBG-Cre, AAV8-U6-Cu/7 gRNAs-TBG-Cre and AAV8-U6-Fbxw8 gRNAs-TBG-Cre virus pools to express six gRNAs targeting individual gene and CAS9 in the liver at a dose of 3×10^11 genome copies/mouse. Two weeks later, livers were harvested for protein and RNA extraction after 6 hours fasting. To determine liver TG levels under NCD feeding condition, 4 weeks after AAV administration livers were harvested after 6 hours fasting. Also 4 weeks after AAV administration, the liver specific Cul7&Fbxw8 double knockout mice were injected with 2-DG (2 g/kg BW) to induce 1 hour glucose deprivation prior to liver harvesting for protein extraction.
Adipose depots, liver pieces, differentiated iBAs, HepG2, HEK293T and HEK293-AAV cell types were homogenized in RIPA buffer (50 mM Tris-HCl pH 7.4, 150 mM NaCl, 2 mM EDTA, 1.0% Triton X100, 0.5% sodium deoxycholate) with protease inhibitors (Complete, Roche) and phosphatase inhibitors (Halt phosphatase inhibitor cocktail, ThermoFisher). The homogenates were centrifuged at 12,000×g for 10 min at 4°C to remove debris and collect whole cell extract (WCE). The concentration of WCE was determined by DC Protein Assay (Bio-Rad). After boiling the sample with Lämmeli buffer at 95°C for 5 min, equal amount of proteins was loaded and separated on 12% SDS-PAGE. The proteins were transferred to nitrocellulose membrane and blotted by ATGL (1:1000, Cell Signaling), CGI-58 (1:1000, Proteintech), phospho-HSL(Ser660) (1:1000, Cell Signaling), PLIN1 (1:1000, Cell Signaling), HSL (1:1000, Cell Signaling), γ-tubulin (1:10000, Sigma), FLAG (1:10000, Sigma; 1:1000, Cell Signaling), MGL (1:1000, Abcam), HA (1:1000, Cell signaling), FBXW8 (1:100, Santa Cruz; 1:1000, Sigma), CUL7 (1:100, Santa Cruz), HSP90 (1:1000, Cell Signaling), K48 polyubiquitin (1:1000, Cell signaling), PI4KB (1:1000, Sigma), SACM1L (1:1000, Sigma), AKT1 (1:1000, Cell Signaling), phospho-AKT1(Ser473) (1:1000, Cell Signaling), TGN46 (1:1000, Abcam), MAOA (1:1000, Abcam), PLIN2 (1:1000, Abcam), PMP70 (1:10000, Sigma), Calnexin (1:1000, Cell Signaling), ARF1 (1:1000, Invitrogen), GAPDH (1:1000, Cell Signaling), RAB7 (1:1000, Cell Signaling), alpha 1 Sodium Potassium ATPase (1:1000, Abcam), Cleaved Caspase-3 (1:1000, Cell Signaling), phospho-AMPKα (Thr172) (1:1000, Cell Signaling), AMPKα (1:1000, Cell Signaling) and GM130 (1:1000, Proteintech). The primay antibody signal was visualized by HRP-conjugated secondary antibodies (1:5000, Millipore) and the ImageQuant system (GE Healthcare Life Sciences).
For mouse insulin measurement, plasma was collected at different timepoints after 2-DG administration in wild type mice. 5 µl plasma sample was used to determine insulin levels via Ultra-sensitive mouse insulin ELISA kit (Crystal Chem, Cat# 90080) according to the manufacturer's protocol. The absorbance was measured via Synergy Gen5 Platereader at 450/630 nm. 2 µl plasma sample was used to determine glucose levels via Glucose Assay Kit (Sigma, MAK263) according to the manufacturer's protocol. The absorbance was read at 570 nm in Synergy Gen5 Platereader.
Plasma collected from mice under different conditions was used to determine levels of lipolysis and liver injury. […]

Test [3] concerns ATGL. The test can be described thus: Blocking of proteasome mediated degradation and autophagy, cellular ATGL protein. The class given is cell-based. Particulars: proteasome blocked by MG132.
Where [4] appears, read: 1 hour after 2-DG administration.

Where a SMILES comes first, the peptide text is derived from it. The star is where a group is joined. Cbz = O=C(OCc1ccccc1)*

As for `O=CC[C@@H](O)[C@H](O)[C@H](O)CO` [2-DG, 2-Deoxy-D-glucose], the ATGL protein abundance entry in test [1] (HepG2, 2-DG treatment (50 mM), transcript levels unchanged) was “strongly induced”. In test [2] (2-DG 2 g/kg BW, 1 h, 6 h and 12 h), the “lipolysis (plasma FFA levels)” value is reported as “significantly induced”. The “ATGL levels in livers of wild-type mice” value in test [2] (2-DG for 1 hour, no upregulation in Cul7 and Fbxw8 double knockout) is “upregulation”. Moreover, the “ATGL protein levels in the liver and iBAT” value in test [2] (1 hour after 2-DG) was “increased”. For the same molecule, in test [2] (setting [4]), the “HSL phosphorylation in white adipose tissues” value is recorded as “upregulation” and the plasma insulin levels entry is recorded as “reduction”. Further, in test [2] (longer glucose deprivation (6 h, 12 h after 2-DG)), the “ATGL protein levels in the liver, iBAT, iWAT and gWAT” value is given as “further accumulation”.

Regarding `C[C@H]1CCC/C=C/[C@@H]2C[C@H](O)C[C@H]2[C@H](O)/C=C/C(=O)O1` [BFA, Brefeldin A], in test [1] (HepG2 after treatment with BFA (5 µg/mL, 6 hours)), the “intracellular ATGL levels upon glucose deprivation” value was “failed to upregulate”.

In the case of `CC(C)C[C@@H](C=O)NC(=O)[C@H](CC(C)C)NC(=O)[C@H](CC(C)C)NC(=O)OCc1ccccc1` [MG132] (Cbz-Leu-Leu-Leu-aldehyde), the “cellular ATGL protein” value in test [3] is reported as “accumulation”.
